Experimental data taken from US20230141034A1, “ADAMANTANE-1-CARBONYL THIOUREA, AS P2X RECEPTOR ANTAGONIST” (COMSATS UNIVERSITY ISLAMABAD, priority 2021, published 2023).

Key:
h-P2X4 [1] = biological target: T1, h-P2X4 (Homo sapiens, UniProt Q99571); experiment: Mode of receptor inhibition, ATP dose-response curve at h-P2X4R; type: cell-based; set-up: expressed in transfected cells; host or cells: human 1321N1 astrocytoma cells
T1 sequence (Q99571 1-388): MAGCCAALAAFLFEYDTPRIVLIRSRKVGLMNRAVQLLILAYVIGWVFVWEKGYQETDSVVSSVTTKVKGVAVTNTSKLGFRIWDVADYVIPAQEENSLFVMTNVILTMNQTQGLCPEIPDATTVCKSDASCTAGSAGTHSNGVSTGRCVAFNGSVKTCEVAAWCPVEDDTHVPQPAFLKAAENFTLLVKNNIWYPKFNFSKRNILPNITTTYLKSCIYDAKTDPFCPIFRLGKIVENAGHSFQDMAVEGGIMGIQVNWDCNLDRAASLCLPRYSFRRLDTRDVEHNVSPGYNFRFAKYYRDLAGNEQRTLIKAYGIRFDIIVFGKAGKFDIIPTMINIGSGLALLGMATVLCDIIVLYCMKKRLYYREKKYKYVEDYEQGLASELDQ
Procedure: (§1) Different dilutions of compounds were administered to receptors expressed cell line.

[2] = system: human 1321N1 Astrocytoma cell line; experiment: MTT cytotoxicity assay, human 1321N1 astrocytoma cell line; type: cell-based; conditions: final concentration of 50 μM
Procedure: (§2) Cellular safety profiling of adamantane thioureas were done through MTT assay. All compounds were analyzed for toxicity at final concentration of 50 μM. […] Toxicity was determined against two cancer cell lines including human 1321N1 Astrocytoma cell line, HeLa cell line and a normal HEK-293 cell line.
(§3) c. Cell Viability Assay (MTT Assay)
(§4) After 24 h of incubation at 37° C. in CO2 incubator, culture media will be replaced with serum-free media along with test compounds and re-incubate. After 24 h, media will be removed and add 100 μL of MTT reagent (0.5-5 mg/mL) and will be incubated for a further 4 h, at 37° C. Absorbance will be measured at 570 and 630 nm to calculate cell viability.

HEK-293 cell line = experiment: MTT cytotoxicity assay, HEK-293 cell line; type: cell-based; conditions: final concentration of 50 μM
Procedure: as §2, §3, §4

HeLa cell line = experiment: MTT cytotoxicity assay, HeLa cell line; type: cell-based; conditions: final concentration of 50 μM
Procedure: as §2, §3, §4

h-P2X7 [3] = biological target: T2, h-P2X7 (Homo sapiens, UniProt Q99572); experiment: Mode of receptor inhibition, BzATP dose-response curve at h-P2X7R; type: cell-based; set-up: expressed in transfected cells; host or cells: human 1321N1 astrocytoma cells
T2 sequence (Q99572 1-595): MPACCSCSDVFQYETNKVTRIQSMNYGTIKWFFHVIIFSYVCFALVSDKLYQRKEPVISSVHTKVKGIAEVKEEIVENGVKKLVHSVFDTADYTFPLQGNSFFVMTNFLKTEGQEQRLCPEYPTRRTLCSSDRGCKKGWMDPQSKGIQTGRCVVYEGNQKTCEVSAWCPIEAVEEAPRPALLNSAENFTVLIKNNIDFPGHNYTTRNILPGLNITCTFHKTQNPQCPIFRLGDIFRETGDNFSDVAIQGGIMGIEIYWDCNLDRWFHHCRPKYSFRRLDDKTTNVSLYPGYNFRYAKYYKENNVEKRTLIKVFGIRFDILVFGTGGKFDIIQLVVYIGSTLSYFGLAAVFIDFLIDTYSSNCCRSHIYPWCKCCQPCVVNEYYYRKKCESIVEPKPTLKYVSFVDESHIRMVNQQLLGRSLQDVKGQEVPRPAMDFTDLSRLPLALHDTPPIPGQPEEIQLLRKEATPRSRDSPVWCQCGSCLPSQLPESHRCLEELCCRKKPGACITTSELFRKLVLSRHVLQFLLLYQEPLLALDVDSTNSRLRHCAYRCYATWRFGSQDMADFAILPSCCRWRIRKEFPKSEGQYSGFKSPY
Procedure: as §1

[4] = MTT cytotoxicity assay, human 1321N1 astrocytoma cell line; type: cell-based; conditions: human, 1321N1 astrocytoma cells, final concentration of 50 μM
Procedure: as §2, §3, §4

h-P2X4 [5] = biological target: T1, h-P2X4; experiment: Ca2+ flux assay h-P2X4; conditions: for IC50: read-out: h-P2X4 IC50 ± SEM, Ca2+ flux, n = 3
Procedure: (§5) Compounds were initially analyzed at a final concentration of about 50 μM and percentage of inhibition was calculated.
(§6) Calcium Mobilization Assay to Measure P2X Receptors Response Cell Culture: P2X receptors functions can be analyzed from ATP-induced increase in cytosolic Ca^2+ concentration. Two Ca^2+ chelating dyes, Fura-2 AM and Fluo-4 AM can be used to determine the intracellular Ca^2+ concentration through a fluorescent imaging micro-titer plate reader (BMG Labtech: FLUOstar Galaxy®). Non-transfected human 1321N1 astrocytoma cells, as well as P2X receptors transfected human 1321N1 astrocytoma cells will be cultured in T-75 cm^2 cell culture flask having appropriate cell culture growth media; Dulbecco's Modified Eagle's medium (DMEM) supplemented with 10% fetal bovine serum (FBS), 75 μg/mL of Hygromycin B or human P2X receptors transfected cell lines and 1% pen-strep (antibiotics). Cells will be incubated at 37° C. in 5% CO2 incubator until 80 to 90% cell confluency will be achieved. Cells will be maintained in an exponential growth phase throughout the experiment and closely monitored for contamination.
Measurement of Ca^2+ Flux
(§7) When 1321N1 cells will reach 80 to 90% of confluency, cells will be harvested from T-75 cm^2 flask by trypsinization. After washing the cells with phosphate buffer saline (PBS), cells will be seeded at a density of 20,000 cells/well in black, clear bottom, poly-D-lysine coated 96 well plate. After 16 to 24 h, cell culture media will be removed and add Hank's balanced salt solution (HBSS) containing 3 μM Ca^2+ chelating dyes Fura-2 AM or Fluo-4 AM. After 1 h of incubation at 23° C., the loading dye solution will be removed, and added seven to eight dilutions of test compounds in triplicate format. ATP (at a concentration value of EC80) or buffer will be added and measured the excitation and emission at 340/520 nm and 380/520 nm through FLUOStar Galaxy®. Assay volume for the experiment will be 200 μL. IC50 and EC50 values will be calculated by PRISM 5.0 (GrapgPad, San Diego, Calif., USA) through non-linear regression analysis.

h-P2X2 = biological target: T3, h-P2X2 (Homo sapiens, UniProt Q9UBL9); experiment: Ca2+ flux assay h-P2X2; conditions: for inhibition at 50 µM: read-out: h-P2X2 % Inhibition
T3 sequence (Q9UBL9 1-471): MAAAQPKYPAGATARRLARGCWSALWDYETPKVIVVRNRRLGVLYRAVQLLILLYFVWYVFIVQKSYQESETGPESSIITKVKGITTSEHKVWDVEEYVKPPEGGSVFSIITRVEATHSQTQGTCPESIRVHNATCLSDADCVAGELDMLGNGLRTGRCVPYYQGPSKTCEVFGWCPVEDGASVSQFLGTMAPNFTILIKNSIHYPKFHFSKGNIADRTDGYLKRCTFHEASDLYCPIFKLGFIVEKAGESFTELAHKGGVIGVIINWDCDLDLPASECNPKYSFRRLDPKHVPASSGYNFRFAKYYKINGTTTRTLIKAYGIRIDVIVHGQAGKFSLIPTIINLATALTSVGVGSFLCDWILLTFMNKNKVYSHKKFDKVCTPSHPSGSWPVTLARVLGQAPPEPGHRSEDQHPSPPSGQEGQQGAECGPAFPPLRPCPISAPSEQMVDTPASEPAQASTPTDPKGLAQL
Procedure: as §5, §6
Measurement of Ca^2+ Flux
as §7

[6] = MTT cytotoxicity assay, HEK-293 cell line; type: cell-based; conditions: human, HEK-293 cells, final concentration of 50 μM
Procedure: as §2, §3, §4

h-P2X7 [7] = biological target: T2, h-P2X7; experiment: Ca2+ flux assay h-P2X7; conditions: for IC50: read-out: h-P2X7 IC50 ± SEM, Ca2+ flux, n = 3
Procedure: as §5, §6
Measurement of Ca^2+ Flux
as §7

[8] = MTT cytotoxicity assay, HeLa cell line; type: cell-based; conditions: human, HeLa cells, final concentration of 50 μM
Procedure: as §2, §3, §4

h-P2X7 [9] = biological target: T2, h-P2X7; experiment: BzATP induced Ethidium Bromide dye-uptake assay (pore formation); type: cell-based; set-up: expressed in transfected cells; host or cells: human 1321N1 astrocytoma cells; conditions: for Emax at 20 µM: read-out: Emax % (at 20 μM inhibitor concentration), BzATP induced Ethidium Bromide dye uptake, 20 μM inhibitor concentration, BzATP without inhibitor = 100; for IC50: serial dilution curves, read-out: IC50 ± SEM, BzATP induced Ethidium Bromide dye uptake
Text: This is a specific assay to access the activities of P2X7R. Prolong exposure of P2X7R leads to pore formation that results intake of large molecular weight dye through this pore. An inhibitor of P2X7R inhibits this pore formation that confirms the inhibitory potential of compounds.
e. Ethidium Bromide Dye-Uptake Assay for P2X7 Receptors: (Pore Formation)
Human astrocytoma 1321N1 cells stably expressing P2X7 receptors will be seeded in the black wall, clear bottom and poly-D-lysine coated 96 wells plate at a cell density of 20,000 cells/well. After 24 h of incubation, culture medium will be removed, and wash the cells with dye uptake buffer. Cells will be treated with ethidium bromide with the subsequent addition of different concentrations of Bz-ATP to 96 wells plate in triplicate format. […] For screening of P2X7 receptor antagonists, cells will be treated with different concentrations of test compounds for 15 min at 37° C. before the addition of Bz-ATP.

h-P2X5 = h-P2X5 (Homo sapiens, UniProt Q93086); experiment: Ca2+ flux assay h-P2X5; conditions: read-out: h-P2X5 % Inhibition
Sequence of h-P2X5 (Q93086 whole entry): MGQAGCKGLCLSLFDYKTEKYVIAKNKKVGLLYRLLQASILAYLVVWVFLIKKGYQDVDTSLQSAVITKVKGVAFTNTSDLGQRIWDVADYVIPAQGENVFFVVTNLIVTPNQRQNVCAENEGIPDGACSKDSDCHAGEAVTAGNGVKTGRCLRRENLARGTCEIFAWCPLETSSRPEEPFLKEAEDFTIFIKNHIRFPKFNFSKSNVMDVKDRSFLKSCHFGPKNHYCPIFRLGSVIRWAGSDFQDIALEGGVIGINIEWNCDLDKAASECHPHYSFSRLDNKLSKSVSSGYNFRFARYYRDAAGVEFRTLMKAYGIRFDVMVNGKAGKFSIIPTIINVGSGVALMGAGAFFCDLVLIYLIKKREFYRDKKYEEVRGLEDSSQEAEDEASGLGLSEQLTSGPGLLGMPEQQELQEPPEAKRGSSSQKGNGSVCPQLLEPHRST
Procedure: as §5, §6
Measurement of Ca^2+ Flux
as §7

Structure (SMILES)	inhibition at 50 µM (h-P2X2) [%]	IC50 (h-P2X7 [7]) [nM]	inhibition at 50 µM (h-P2X5) [%]	Human 1321N1 Astrocytoma Cell Line (% cytotoxicity) [2] [%]	HEK-293 Cell Line (% cytotoxicity) (HEK-293 cell line) [%]	HeLa Cell Line (% cytotoxicity) (HeLa cell line) [%]	cytotoxicity at 24 h, 50 µM [4] [%]	cytotoxicity at 24 h, 50 µM [6] [%]	cytotoxicity at 24 h, 50 µM [8] [%]	further results
Nc1ncnc2c1ncn2[C@@H]1O[C@H](COP(=O)(O)OP(=O)(O)OP(=O)(O)O)[C@@H](O)[C@H]1O [ATP, reference compound]										EC50 (h-P2X4 [1]; ATP without inhibitor, read-out: EC50 of ATP induced response): 5450 nM
CC(C)c1cc(Br)c(NC(=O)Nc2cccnc2)c(Br)c1 [BX-430, reference compound]				20.21	2.85	9.12				
Nc1ncnc2c1ncn2[C@@H]1O[C@H](COP(=O)(O)OP(=O)(O)OP(=O)(O)O)[C@@H](OC(=O)c2ccc(C(=O)c3ccccc3)cc2)[C@H]1O [BzATP, reference compound]										EC50 (h-P2X7 [3]; BzATP without inhibitor, read-out: EC50 of BzATP induced response): 7090 nM
Cc1nc(N=Nc2ccc(S(=O)(=O)O)cc2S(=O)(=O)O)c(COP(=O)(O)O)c(C=O)c1O [PPADS, reference compound]				19.02	42.58	17.92				
Nc1c(S(=O)(=O)O)cc(Nc2ccc(Nc3nc(Cl)nc(Nc4cccc(S(=O)(=O)O)c4)n3)c(S(=O)(=O)O)c2)c2c1C(=O)c1ccccc1C2=O [Reactive Blue 2, reference compound]		2790 ± 220		20.82	39.89	14.47				IC50 (h-P2X2; read-out: h-P2X2 IC50 ± SEM, Ca2+ flux, n = 3): 890 ± 410 nM

The next lines start with results.

inhibition at 50 µM (h-P2X2) [%]	IC50 (h-P2X7 [7]) [nM]	inhibition at 50 µM (h-P2X5) [%]	Structure (SMILES)	Human 1321N1 Astrocytoma Cell Line (% cytotoxicity) [2] [%]	HEK-293 Cell Line (% cytotoxicity) (HEK-293 cell line) [%]	HeLa Cell Line (% cytotoxicity) (HeLa cell line) [%]	cytotoxicity at 24 h, 50 µM [4] [%]	cytotoxicity at 24 h, 50 µM [6] [%]	cytotoxicity at 24 h, 50 µM [8] [%]	further results
13.2	99 ± 70	25.5	O=C(NC(=S)Nc1cccnc1Cl)C12CC3CC(CC(C3)C1)C2 [If, N-((2-chloropyridin-3-yl)carbamothioyl)adamantane-1-carboxamide]				11.4	4.95	5.21	IC50 (h-P2X4 [5]): 1270 ± 110 nM; Emax at 20 µM (h-P2X7 [9]): 47%; IC50 (h-P2X7 [9]): 310 ± 70 nM
15.3	73 ± 40	31.5	O=C(NC(=S)Nc1cccc2cccnc12)C12CC3CC(CC(C3)C1)C2 [Io, N-(quinolin-8-ylcarbamothioyl)adamantane-1-carboxamide]				9.12	17.6	6.22	inhibition at 50 µM (h-P2X4 [5]; read-out: h-P2X4 % Inhibition): 25.1%; mechanism of receptor inhibition (h-P2X7 [3]; h-P2X7R expressed cell line, different dilutions of compound): negative allosteric modulators; Emax at 20 µM (h-P2X7 [9]): 70%; IC50 (h-P2X7 [9]): 136 ± 20 nM
30.2		12.4	CC(C)c1ccc(NC(=S)NC(=O)C23CC4CC(CC(C4)C2)C3)c(Br)c1 [Ip, N-((2-bromo-4-isopropylphenyl)carbamothioyl)adamantane-1-carboxamide]				19.7	20.6	23.5	IC50 (h-P2X4 [5]): 40 ± 10 nM; inhibition at 50 µM (h-P2X7 [7]; read-out: h-P2X7 % Inhibition): 42.5%; mechanism of receptor inhibition (h-P2X4 [1]; h-P2X4R expressed cell line, different dilutions of compound): negative allosteric modulators
